Experimental data as given in patent publication US8227601B2, “Diaryl-purines, azapurines and -deazapurines as non-nucleoside reverse transcriptase inhibitor for treatment of HIV” (priority 2005, dated 2012).
pEC50: −log10 of the molar value. Read-outs that look alike come from different tables or passages of the source.

Tests used:
Assay in all cases: microbe, parasite or virus in culture
Format in all cases: cell-based, human immunodeficiency virus type 1 (HIV-1)
HIV-1 L1001-K103N = details: for EC50: Human immunodeficiency virus 1, read-out: EC50 L1001-K103N (nM), L1001-K103N mutant
HIV-1 Y188L = details: for EC50: Human immunodeficiency virus 1, read-out: EC50 Y188L (nM)
HIV-1 Y181C = details: for EC50: Human immunodeficiency virus 1, read-out: EC50 Y181C (nM), Y181C mutant
wild type HIV-1 = details: for EC50: Human immunodeficiency virus 1, Hela-JC53, read-out: EC50 WT (nM)

| SMILES | EC50 (HIV-1 L1001-K103N) | EC50 (HIV-1 Y188L) | EC50 (HIV-1 Y181C) | EC50 (wild type HIV-1) | pEC50 (HIV-1 L1001-K103N; read-out: EC50 L1001-K103N, L1001-K103N mutant) | pEC50 (HIV-1 Y188L; read-out: EC50 Y188L, Y188L mutant) | pEC50 (HIV-1 Y181C; read-out: EC50 Y181C, Y181C mutant) | pEC50 (wild type HIV-1; read-out: EC50 WT, wild-type HIV-1) |
| --- | --- | --- | --- | --- | --- | --- | --- | --- |
| Cc1cc(C)c(Oc2nc(Nc3ccc(C#N)cc3)nc3[nH]ccc23)c(C)c1 [Cpd 1] | 10 to 100 nM | 10 to 100 nM | 10 to 100 nM | < 10 nM | – | – | – | – |
| Cc1cc(C)c(Sc2nc(Nc3ccc(C#N)cc3)nc3[nH]ccc23)c(C)c1 [Cpd 2] | > 100 nM | 10 to 100 nM | 10 to 100 nM | < 10 nM | – | – | – | – |
| Cc1cc(C#N)cc(C)c1Oc1nc(Nc2ccc(C#N)cc2)nc2[nH]ccc12 [Cpd 3] | < 10 nM | < 10 nM | < 10 nM | < 10 nM | – | – | – | – |
| Cc1cc(C)c(Nc2nc(Nc3ccc(C#N)cc3)nc3[nH]ccc23)c(C)c1 [Cpd 4] | 10 to 100 nM | 10 to 100 nM | 10 to 100 nM | < 10 nM | – | – | – | – |
| Cc1cc(C)c(Oc2nc(Nc3ccc(C#N)cc3)nc3[nH]cnc23)c(C)c1 [Cpd 5] | < 10 nM | < 10 nM | < 10 nM | < 10 nM | – | – | – | – |
| Cc1cc(Br)cc(C)c1Oc1nc(Nc2ccc(C#N)cc2)nc2[nH]ccc12 [Cpd 6] | 10 to 100 nM | 10 to 100 nM | 10 to 100 nM | < 10 nM | – | – | – | – |
| Cc1cc(C)c(Oc2nc(Nc3ccc(C#N)cc3)nc3[nH]ncc23)c(C)c1 [Cpd 7] | 10 to 100 nM | 10 to 100 nM | < 10 nM | < 10 nM | – | – | – | – |
| Cc1cc(Br)cc(Cl)c1Oc1nc(Nc2ccc(C#N)cc2)nc2c1ccn2Cc1ccccc1 [Cpd 8] | > 100 nM | > 100 nM | > 100 nM | 10 to 100 nM | – | – | – | – |
| Cc1ccc(Oc2nc(Nc3ccc(C#N)cc3)nc3[nH]ccc23)c(C)c1 [Cpd 9] | > 100 nM | > 100 nM | > 100 nM | < 10 nM | – | – | – | – |
| Cc1cc(Br)cc(Cl)c1Oc1nc(Nc2ccc(C#N)cc2)nc2[nH]ccc12 [Cpd 10] | 10 to 100 nM | 10 to 100 nM | 10 to 100 nM | < 10 nM | – | – | – | – |
| Cc1cc(Cl)cc(C)c1Oc1nc(Nc2ccc(C#N)cc2)nc2[nH]ccc12 [Cpd 11] | 10 to 100 nM | < 10 nM | 10 to 100 nM | < 10 nM | – | – | – | – |
| Cc1cc(C)c(Oc2nc(Nc3ccc(S(N)(=O)=O)cc3)nc3[nH]cnc23)c(C)c1 [Cpd 12] | > 100 nM | > 100 nM | > 100 nM | 10 to 100 nM | – | – | – | – |
| Cc1cc(C#N)cc(C)c1Oc1nc(Nc2ccc(C#N)cc2)nc2c1ccn2C [Cpd 13] | < 10 nM | < 10 nM | < 10 nM | < 10 nM | – | – | – | – |
| COC(=O)c1ccc(Nc2nc(Oc3c(C)cc(C)cc3C)c3nc[nH]c3n2)cc1 [Cpd 14] | > 100 nM | > 100 nM | > 100 nM | < 10 nM | – | – | – | – |
| Cc1cc(C)c(Oc2nc(Nc3ccc(C(N)=O)cc3)nc3[nH]cnc23)c(C)c1 [Cpd 15] | > 100 nM | > 100 nM | > 100 nM | 10 to 100 nM | – | – | – | – |
| Cc1cc(C)c(Oc2nc(Nc3ccc(C(=O)O)cc3)nc3[nH]cnc23)c(C)c1 [Cpd 16] | > 100 nM | > 100 nM | > 100 nM | > 100 nM | – | – | – | – |
| Cc1cc(C#N)cc(C)c1Oc1nc(Nc2ccc(C#N)cc2)nc2[nH]ncc12 [Cpd 17] | 10 to 100 nM | < 10 nM | 10 to 100 nM | < 10 nM | – | – | – | – |
| Cc1cc(C)c(Oc2nc(Nc3ccc(C#N)cc3)nc3[nH]cc(Cl)c23)c(C)c1 [Cpd 18] | > 100 nM | > 100 nM | > 100 nM | 10 to 100 nM | – | – | – | – |
| Cc1cc(C2CC2)cc(C)c1Oc1nc(Nc2ccc(C#N)cc2)nc2[nH]cnc12 [Cpd 19] | 10 to 100 nM | < 10 nM | < 10 nM | < 10 nM | – | – | – | – |
| Cc1ccc(Nc2nc(Nc3ccc(C#N)cc3)nc3[nH]cnc23)c2ccccc12 [Cpd 20] | > 100 nM | > 100 nM | 10 to 100 nM | < 10 nM | – | – | – | – |

| SMILES | EC50 (HIV-1 L1001-K103N) | EC50 (HIV-1 Y188L) | EC50 (HIV-1 Y181C) | EC50 (wild type HIV-1) | pEC50 (HIV-1 L1001-K103N; read-out: EC50 L1001-K103N, L1001-K103N mutant) | pEC50 (HIV-1 Y188L; read-out: EC50 Y188L, Y188L mutant) | pEC50 (HIV-1 Y181C; read-out: EC50 Y181C, Y181C mutant) | pEC50 (wild type HIV-1; read-out: EC50 WT, wild-type HIV-1) |
| --- | --- | --- | --- | --- | --- | --- | --- | --- |
| N#Cc1ccc(Nc2nc(Oc3ccc(Cl)c4ccccc34)c3nc[nH]c3n2)cc1 [Cpd 21] | > 100 nM | 10 to 100 nM | 10 to 100 nM | < 10 nM | – | – | – | – |
| N#Cc1ccc(Nc2nc(Nc3ccc(C4CC4)c4ccccc34)c3nc[nH]c3n2)cc1 [Cpd 22] | > 100 nM | > 100 nM | > 100 nM | < 10 nM | – | – | – | – |
| Cc1cc(C)c(Nc2nc(Nc3ccc(C#N)cc3)nc3[nH]cnc23)c(C)c1 [Cpd 23] | 10 to 100 nM | < 10 nM | < 10 nM | < 10 nM | – | – | – | – |
| N#Cc1ccc(Nc2nc(Nc3ccc(C#N)cc3)c3nc[nH]c3n2)cc1 [Cpd 24] | > 100 nM | > 100 nM | > 100 nM | 10 to 100 nM | – | – | – | – |
| Cc1cc(C#N)cc(C)c1Oc1nc(Nc2ccc(C#N)cc2)nc2[nH]cnc12 [Cpd 25] | 10 to 100 nM | < 10 nM | < 10 nM | < 10 nM | – | – | – | – |
| CCn1ccc2c(Oc3c(C)cc(C#N)cc3C)nc(Nc3ccc(C#N)cc3)nc21 [Cpd 26] | > 100 nM | 10 to 100 nM | 10 to 100 nM | < 10 nM | – | – | – | – |
| Cc1cc(C2CC2)cc(Cl)c1Nc1nc(Nc2ccc(C#N)cc2)nc2[nH]cnc12 [Cpd 27] | 10 to 100 nM | 10 to 100 nM | 10 to 100 nM | < 10 nM | – | – | – | – |
| Cc1cc(C2CC2)cc(C)c1Nc1nc(Nc2ccc(C#N)cc2)nc2[nH]cnc12 [Cpd 28] | 10 to 100 nM | 10 to 100 nM | < 10 nM | < 10 nM | – | – | – | – |
| N#Cc1ccc(Nc2nc(Nc3ccc4c(c3)CCC4)c3nc[nH]c3n2)cc1 [Cpd 29] | > 100 nM | > 100 nM | > 100 nM | < 10 nM | – | – | – | – |
| Cc1ccc2cccc(Nc3nc(Nc4ccc(C#N)cc4)nc4[nH]cnc34)c2n1 [Cpd 30] | > 100 nM | > 100 nM | > 100 nM | > 100 nM | – | – | – | – |
| Cc1cc(C)c(Oc2nc(Nc3ccc(C#N)cc3)nc3[nH]cnc23)c(C)c1 [Cpd 31] | – | – | – | – | 7.00 to 8.00 | > 8.00 | 7.00 to 8.00 | > 8.00 |
| Cc1ccc2ccccc2c1Nc1nc(Nc2ccc(C#N)cc2)nc2[nH]cnc12 [Cpd 32] | > 100 nM | > 100 nM | 10 to 100 nM | < 10 nM | – | – | – | – |
| Cc1cc(C2CC2)cc(C)c1Oc1nc(Nc2ccc(C#N)cc2)nc2[nH]ccc12 [Cpd 33] | 10 to 100 nM | 10 to 100 nM | 10 to 100 nM | < 10 nM | – | – | – | – |
| Cc1cc(C)c(Oc2nc(Nc3ccc(F)cc3)nc3[nH]cnc23)c(C)c1 [Cpd 34] | 10 to 100 nM | 10 to 100 nM | < 10 nM | < 10 nM | – | – | – | – |
| COc1ccc(Nc2nc(Oc3c(C)cc(C)cc3C)c3nc[nH]c3n2)cc1 [Cpd 35] | > 100 nM | > 100 nM | 10 to 100 nM | < 10 nM | – | – | – | – |
| Cc1cc(C)c(Oc2nc(Nc3cccc(C#N)c3)nc3[nH]cnc23)c(C)c1 [Cpd 36] | > 100 nM | > 100 nM | 10 to 100 nM | < 10 nM | – | – | – | – |
| Cc1cc(C)c(Oc2nc(Nc3ccc(C#N)cc3)nc3cc[nH]c23)c(C)c1 [Cpd 37] | < 10 nM | < 10 nM | < 10 nM | < 10 nM | – | – | – | – |
| Cc1cc(C)c(Oc2nc(Nc3ccc(C(F)(F)F)cc3)nc3[nH]cnc23)c(C)c1 [Cpd 38] | > 100 nM | > 100 nM | > 100 nM | 10 to 100 nM | – | – | – | – |
| Cc1cc(C)c(Oc2nc(Nc3cccc(C(F)(F)F)c3)nc3[nH]cnc23)c(C)c1 [Cpd 39] | > 100 nM | > 100 nM | > 100 nM | > 100 nM | – | – | – | – |
